# Reference: PubChem BioAssay (NCI)
#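 Tested at 5 concentrations; 48 h exposure; 96-well plates; endpoints linearly interpolated, else capped at highest concentration. GI50: concentration for 50% inhibition of growth. TGI denotes the concentration required for complete inhibition of growth.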
# Key:
# Assay in all cases: NCI-60 cell line screen, 48 h
# [1] = tested on: HCT-15 colon
# [2] = tested on: HS 578T breast
# [3] = tested on: A549 NSCLC
# [4] = tested on: NCI-H23 lung
# [5] = tested on: PC-3 prostate
# [6] = tested on: SK-OV-3 ovarian
# [7] = tested on: SF-268 CNS
# [8] = tested on: MDA-N
# [9] = tested on: OVCAR-5 ovarian
# [10] = tested on: HOP-62 NSCLC
# [11] = tested on: SF-295 CNS
# [12] = tested on: CAKI-1 renal
# [13] = tested on: T-47D breast
# [14] = tested on: NCI-H522 lung
# [15] = tested on: SNB-19 CNS
# [16] = tested on: ACHN renal
# [17] = tested on: MDA-MB-435
# [18] = tested on: 786-0 renal
# [19] = tested on: MDA-MB-231 breast
# [20] = tested on: OVCAR-4 ovarian
# [21] = tested on: MALME-3M melanoma
# [22] = tested on: TK-10 renal
# [23] = tested on: COLO 205 colon
# [24] = tested on: MOLT-4 leukemia
# [25] = tested on: HCC-2998 colon
# [26] = tested on: UACC-62 melanoma
# [27] = tested on: UO-31 renal
# [28] = tested on: BT-549 breast
# [29] = tested on: SN12C renal
# [30] = tested on: NCI/ADR-RES ovarian
# [31] = tested on: LOX IMVI melanoma
# [32] = tested on: U251 CNS
# [33] = tested on: OVCAR-8 ovarian
# [34] = tested on: RXF 393 renal
# [35] = tested on: A498 renal
# [36] = tested on: KM12 colon
# [37] = tested on: NCI-H226 lung
# [38] = tested on: SW-620 colon
# [39] = tested on: IGROV1 ovarian
# [40] = tested on: NCI-H460 lung
# [41] = tested on: HOP-92 NSCLC
# [42] = tested on: SF-539 CNS
# [43] = tested on: SK-MEL-2 melanoma
# [44] = tested on: HCT-116 colon
# [45] = tested on: SK-MEL-28 melanoma
# [46] = tested on: DU-145 prostate
# [47] = tested on: OVCAR-3 ovarian
# [48] = tested on: HT29 colon
# [49] = tested on: EKVX NSCLC
# [50] = tested on: K-562 leukemia
# [51] = tested on: SNB-75 CNS
# [52] = tested on: CCRF-CEM leukemia
# [53] = tested on: UACC-257 melanoma
# [54] = tested on: SR leukemia
# [55] = tested on: M14 melanoma
# [56] = tested on: MCF7 breast
# [57] = tested on: RPMI-8226 leukemia
# [58] = tested on: SK-MEL-5 melanoma
# [59] = tested on: HL-60(TB) leukemia
smiles,measurement,setting,value
CCC(C)NC(=S)N/N=C(\C)c1ccccn1 (centres undefined),TGI,[1],> 100 µM
same,TGI,[2],> 100 µM
same,TGI,[3],> 33.5 µM
same,TGI,[4],> 100 µM
same,TGI,[5],> 100 µM
same,TGI,[6],> 100 µM
same,TGI,[7],> 100 µM
same,TGI,[8],> 80 µM
same,TGI,[9],> 100 µM
same,TGI,[10],> 25.8 µM
same,TGI,[11],> 33.2 µM
same,TGI,[12],> 100 µM
same,TGI,[13],41.7 µM
same,TGI,[14],51.4 µM
same,TGI,[15],> 100 µM
same,TGI,[16],10.3 µM
same,TGI,[17],> 100 µM
same,TGI,[18],> 100 µM
same,TGI,[19],> 100 µM
same,TGI,[20],> 100 µM
same,TGI,[21],> 28.3 µM
same,TGI,[22],> 100 µM
same,TGI,[23],> 100 µM
same,TGI,[24],0.14 µM
same,TGI,[25],> 100 µM
same,TGI,[26],> 30 µM
same,TGI,[27],16.8 µM
same,TGI,[28],> 100 µM
same,TGI,[29],> 100 µM
same,TGI,[30],7.94 µM
same,TGI,[31],> 100 µM
same,TGI,[32],> 100 µM
same,TGI,[33],> 25.8 µM
same,TGI,[34],26.9 µM
same,TGI,[35],> 26 µM
same,TGI,[36],> 100 µM
same,TGI,[37],6.83 µM
same,TGI,[38],> 100 µM
same,TGI,[39],> 30.7 µM
same,TGI,[40],> 100 µM
same,TGI,[41],0.668 µM
same,TGI,[42],6.89 µM
same,TGI,[43],> 100 µM
same,TGI,[44],> 100 µM
same,TGI,[45],> 100 µM
same,TGI,[46],> 46.8 µM
same,TGI,[47],23.4 µM
same,TGI,[48],> 100 µM
Cc1cc(C)c(O)c(CNCCCCCCNCc2cc(C)cc(C)c2O)c1,GI50,[1],1.4 µM
same,TGI,[1],3.05 µM
same,GI50,[49],1.74 µM
same,TGI,[49],3.65 µM
same,GI50,[2],1.65 µM
same,TGI,[2],3.88 µM
same,GI50,[3],2.23 µM
same,TGI,[3],4.72 µM
same,GI50,[4],1.7 µM
same,TGI,[4],3.28 µM
same,GI50,[5],1.99 µM
same,TGI,[5],4.28 µM
same,GI50,[6],1.83 µM
same,TGI,[6],3.67 µM
same,GI50,[7],1.61 µM
same,TGI,[7],3.36 µM
same,GI50,[9],1.82 µM
same,TGI,[9],4.31 µM
same,GI50,[10],1.77 µM
same,TGI,[10],3.6 µM
same,GI50,[11],1.78 µM
same,TGI,[11],3.46 µM
same,GI50,[12],1.97 µM
same,TGI,[12],4.49 µM
same,GI50,[13],1.5 µM
same,TGI,[13],3.36 µM
same,GI50,[14],1.78 µM
same,TGI,[14],3.67 µM
same,GI50,[15],1.98 µM
same,TGI,[15],4.59 µM
same,GI50,[50],1.61 µM
same,TGI,[50],3.55 µM
same,GI50,[16],1.91 µM
same,TGI,[16],3.69 µM
same,GI50,[17],1.43 µM
same,TGI,[17],2.81 µM
same,GI50,[18],1.42 µM
same,TGI,[18],2.92 µM
same,GI50,[19],1.38 µM
same,TGI,[19],2.9 µM
same,GI50,[20],1.51 µM
same,TGI,[20],3.75 µM
same,GI50,[21],1.6 µM
same,TGI,[21],3.17 µM
same,GI50,[22],1.39 µM
same,TGI,[22],2.92 µM
same,GI50,[23],1.67 µM
same,TGI,[23],3.32 µM
same,GI50,[24],1.72 µM
same,TGI,[24],3.9 µM
same,GI50,[51],1.33 µM
same,TGI,[51],2.63 µM
same,GI50,[25],1.02 µM
same,TGI,[25],2.39 µM
same,GI50,[26],1.82 µM
same,TGI,[26],3.41 µM
same,GI50,[27],1.42 µM
same,TGI,[27],2.83 µM
same,GI50,[28],2.24 µM
same,TGI,[28],5.52 µM
same,GI50,[29],1.83 µM
same,TGI,[29],3.92 µM
same,GI50,[30],1.85 µM
same,TGI,[30],3.86 µM
same,GI50,[31],1.48 µM
same,TGI,[31],2.88 µM
same,GI50,[32],1.58 µM
same,TGI,[32],3.07 µM
same,GI50,[33],2.2 µM
same,TGI,[33],5.01 µM
same,GI50,[34],1.59 µM
same,TGI,[34],3.08 µM
same,GI50,[35],1.32 µM
same,TGI,[35],3.15 µM
same,GI50,[36],1.82 µM
same,TGI,[36],3.51 µM
same,GI50,[52],2.19 µM
same,TGI,[52],5.72 µM
same,GI50,[37],1.83 µM
same,TGI,[37],3.72 µM
same,GI50,[38],1.81 µM
same,TGI,[38],3.56 µM
same,GI50,[39],1.68 µM
same,TGI,[39],3.49 µM
same,GI50,[40],1.89 µM
same,TGI,[40],3.58 µM
same,GI50,[41],1.25 µM
same,TGI,[41],4.01 µM
same,GI50,[53],2.07 µM
same,TGI,[53],4.13 µM
same,GI50,[54],1.34 µM
same,TGI,[54],3.84 µM
same,GI50,[55],1.72 µM
same,TGI,[55],3.59 µM
same,GI50,[42],1.62 µM
same,TGI,[42],3.17 µM
same,GI50,[56],1.54 µM
same,TGI,[56],3.22 µM
same,GI50,[43],1.91 µM
same,TGI,[43],3.67 µM
same,GI50,[44],1.73 µM
same,TGI,[44],3.43 µM
same,GI50,[45],1.66 µM
same,TGI,[45],3.28 µM
same,GI50,[57],1.94 µM
same,TGI,[57],4.96 µM
same,GI50,[58],1.61 µM
same,TGI,[58],3.09 µM
same,GI50,[46],1.7 µM
same,TGI,[46],3.3 µM
same,GI50,[47],1.64 µM
same,TGI,[47],3.42 µM
same,GI50,[59],1.84 µM
same,TGI,[59],3.77 µM
same,GI50,[48],1.73 µM
same,TGI,[48],3.82 µM
